This is an account of results in PMC10045534, “Preparation and Evaluation of 6-Gingerol Derivatives as Novel Antioxidants and Antiplatelet Agents” (Antioxidants, 2023).

As a reminder, the IC50 is the point on the concentration scale where inhibition reaches its midpoint. As a reminder, the solubility (kinetic) is the concentration staying in solution when a stock, usually in DMSO, is diluted into the medium. As a reminder, the inhibition is the relative decrease from the control value, in per cent.

Series [1] relates to washed human platelets. Description: Arachidonic acid-induced platelet aggregation (turbidimetric aggregometer). Format: cell-based. The conditions noted are these: washed human platelets treated 3 min, then arachidonic acid (100 μM), mean ± SEM, n = 3, read-out: Antiplatelet IC50. On the procedure:
(§1) All bioactivity data processing, including the calculation of inhibition percentage, mean and corresponding standard error of the mean (SEM), and IC50 values, was performed by GraphPad Prism 8.0 (La Jolla, CA, USA). IC50 values were calculated from the sigmoidal dose–response curves obtained by the log(inhibitor) vs. response and variable slope (DPPH assay) or the log(inhibitor) vs. normalised response and variable slope nonlinear regression model. On the results obtained, no statistical evaluation was performed; instead, differences greater than two-fold were considered relevant. Plotting of the antiplatelet and COX-1 inhibitory IC50 values and the linear regression of the data was performed by Microsoft Excel.
Human platelet suspension (3 × 10^8/mL in Tyrode’s buffer) was prepared as previously described. The protocol for this study was approved by the institutional review board of Kaohsiung Medical University Hospital (Kaohsiung City, Taiwan). Platelets pre-treated with DMSO (vehicle control) or test compounds were stimulated with arachidonic acid (AA), and platelet aggregation was measured using turbidimetric aggregometer (Chrono-Log Co., Havertown, PA, USA) at 37 °C under stirring conditions (1200 rpm).

Series [2] deals with T1, COX-1 enzyme (Ovis aries, UniProt P05979).
T1 construct: purchased BioVision (via VWR International Kft.) K548-100
T1 sequence (P05979 25-600): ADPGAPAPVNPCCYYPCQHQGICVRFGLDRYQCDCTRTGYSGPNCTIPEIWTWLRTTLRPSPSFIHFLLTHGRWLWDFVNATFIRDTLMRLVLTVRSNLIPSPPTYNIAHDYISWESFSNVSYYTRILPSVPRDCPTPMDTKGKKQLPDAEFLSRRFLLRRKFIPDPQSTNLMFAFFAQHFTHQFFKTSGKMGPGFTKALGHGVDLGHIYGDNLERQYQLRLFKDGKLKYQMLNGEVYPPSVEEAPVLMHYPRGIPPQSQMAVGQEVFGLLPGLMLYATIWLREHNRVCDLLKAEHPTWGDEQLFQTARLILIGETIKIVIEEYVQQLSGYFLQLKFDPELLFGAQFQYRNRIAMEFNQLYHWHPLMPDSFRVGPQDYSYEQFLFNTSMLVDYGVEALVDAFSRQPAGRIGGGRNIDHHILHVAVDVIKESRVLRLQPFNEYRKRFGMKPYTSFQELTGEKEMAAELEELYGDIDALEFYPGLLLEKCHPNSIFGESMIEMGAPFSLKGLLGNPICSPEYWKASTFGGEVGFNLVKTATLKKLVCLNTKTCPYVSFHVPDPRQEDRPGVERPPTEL
Kind of series: COX-1 inhibitor screening kit, fluorometric (BioVision K548-100). Format: biochemical. To be noted: for LLE(COX-1): LLE = pIC50 − logPpredicted; for IC50: mean ± SEM, n = 2. On the procedure:
COX-1 inhibitory activity was tested based on the fluorometric method as described in BioVision’s COX-1 inhibitor screening kit leafkit (K548-100, BioVision, CA, USA). Sample solutions were prepared by dissolving in DMSO and subsequently buffer, to get desired concentrations. In a 96-well white plate (655101, F-bottom, Grenier bio-one, Germany), 80 µL reaction mix (containing 76 µL assay buffer, 1 µL COX Probe, 2 µL COX cofactor, and 1 µL COX-1 enzyme) was added to 10 µL sample solution, DMSO and assay buffer to get test wells assigned for sample screen (S), negative control (N) and blank, respectively. An aliquot of 10 µL of arachidonic/NaOH solution was added to each well using a multi-channel pipette to initiate the reaction at the same time, and the fluorescence of each well was measured kinetically at Ex/Em 550/610 nm, at 25OC for 10 min using a FluoStar Optima plate reader (BMG Labtech, Ortenberg, Germany). The COX inhibitory activity of SC560, a standard inhibitor, was also determined.
The change in fluorescence between two points, T1 and T2 were determined, and relative inhibition was calculated according to the following equation:% Inhibition = (ΔN − ΔS)/ΔN × 100 (1) where N is the absorbance of the negative control, and S is that of the sample.
Dose-effect studies on the compounds were used to determine the concentration that inhibits 50% of the enzyme activity. The sigmoidal dose–response model was obtained by using the software GraphPad Prism 8.0 (La Jolla, CA, USA), and these were used to determine the IC50 values of the compounds.

The nature of series [3]: DPPH free radical scavenging assay. To be noted: for IC50: 30 min, room temperature, MeOH, mean ± SEM, n = 2, read-out: DDPH IC50. On the procedure:
as §1
DPPH (1,10-diphenyl-2-picrylhydrazyl) was purchased from Thermo Fisher Scientific. DPPH free radical scavenging assay was performed with some modifications based on the method by previous study. Briefly, in a 96-well microplate, microdilutions of samples (100 µL, starting from 200 µM in HPLC grade MeOH) were made and 100 µL of DPPH reagent (100 µM in MeOH) was added. After 30 min at room temperature in the dark, the absorbance was measured at 550 nm using a FluoStar Optima plate reader (software version 2.20R2, BMG Labtech Ortenberg, Germany). For the blank control, MeOH was used. The scavenging activity was calculated as Inhibition (%) = (A0 − As)/A0 × 100, and IC50 values were calculated by GraphPad Prism 8.0 (La Jolla, CA, USA).
On the technique in general: DPPH is a stable violet radical that fades when it is reduced.

The nature of series [4]: Oxygen radical absorbance capacity (ORAC). To be noted: 1 µM sample; mean ± SEM, n = 3. The method, then: AAPH ((2,20-Azobis(2-methyl-propionamidine) dihydrochloride) free radical and Trolox standard were purchased from Sigma-Aldrich Hungary. Fluorescein was purchased from Fluka Analytical, Tokyo, Japan. ORAC assay was carried out In a 96-well microplate based on the method from previous study. Briefly, 20 µL of the samples (1 µM final concentration, dissolved in phosphate buffer, pH = 7.4, containing 1% MeOH) were mixed with 60 µL of AAPH (12 mM final concentration, dissolved in phosphate buffer, pH = 7.4) and 120 µL of fluorescein solution (70 nM final concentration, dissolved in phosphate buffer), then the fluorescence was measured (excitation at λ = 485 nm, and emission at λ = 520 nm) through 3 h with 1.5-min cycle intervals with a BMG Labtech FluoStar Optima plate-reader. All experiments were carried out in triplicate, and Trolox was used as standard. The antioxidant capacity is expressed as Trolox Equivalent (TE), as calculated using GraphPad Prism 8.0 (La Jolla, CA, USA).

A short description of series [5]: Peroxynitrite scavenging (pyrogallol red). To be noted: % inhibition at 500 µM; mean ± SEM, n = 3. On the procedure:
Peroxynitrite was synthesised by a continuous flow system using syringe pumps as published previously. Briefly, an acidic solution of hydrogen peroxide (0.6 M H2O2, 0.7 M HCl) was pumped to a junction alongside of sodium nitrite solution (0.6 M) at a flow rate of 1.5 mL/min. After passing 10 cm of tubing, it was mixed with a sodium hydroxide solution (1.5 M), also pumped at 1.5 mL/min. The resulting peroxynitrite solution was a bright yellow colour. The tubing around the reaction was submerged in ice. The concentration of the solution was determined by spectrophotometry and was adjusted to 30 mM with 0.1 M NaOH solution.
In a 96-well microplate 245 µL of pyrogallol red (100 µM final concentration, dissolved in 0.1 M glycine buffer) was mixed with 50 µL of sample (0.5 mM final concentration, dissolved in DMSO) and 5 µL ONOO^– solution (500 µM final concentration, freshly prepared). After mixing and keeping it at room temperature for 30 min the absorbance was measured at 550 nm using a FluoStar Optima plate reader (software version 2.20R2, BMG Labtech, Ortenberg, Germany).

The target in series [6] is T2, xanthine oxidase (XO) (Bos taurus, UniProt P80457).
T2 construct: purchased Sigma (Merck KGaA)
Kind of series: Xanthine oxidase inhibition, spectrophotometric. Format: biochemical. The conditions noted are these: for XO Inhibition (%): % inhibition at 100 µM, mean ± SEM, n = 3; for inhibition at 100 µM: read-out: XO Inhibition (%). The method, then: The xanthine oxidase (XO) inhibitory activity of the compounds was determined using continuous spectrophotometric rate based on a modified protocol of Sigma. […]. In a 96-well plate, the final reaction mixture consisted of 10 µL of sample (dissolved in DMSO, […] stock solution, 100 µM final), 100 µL of xanthine solution (0.15 mM, pH = 7.4), 140 µL of buffer (potassium phosphate, pH = 7.5) and 50 µL of XO (0.2 units/mL). When measuring the enzyme activity, control buffer was used in place of the sample. Allopurinol was applied as a control. The reaction was initiated by the automatic addition of 50 µL of XO solution. The absorbance of XO-induced uric acid production from xanthine was measured at 290 nm for 3 min in a 96-well plate on a BMG Labtech FluoStar Optima plate reader. The inhibitory percentage values were calculated by using Graph Pad Prism 8.0 (La Jolla, CA, USA).

A short description of series [7]: Kinetic aqueous solubility in PBS pH 7.4. Format: physicochemical. To be noted: PBS (pH 7.4), 37 °C, pH 7.4, aqueous buffer, kinetic from dmso stock, after 2 h at 37 °C in PBS, 500 μM target concentration, mean ± SEM, n = 3. On the procedure:
Preparative purifications over RP-HPLC were performed on a Kinetex XB C18 (5 μm, 250 × 21.2 mm) column on an Armen Spot Prep II integrated HPLC purification system (Gilson, Middleton, WI, USA) with dual-wavelength detection, with an adequately chosen combination of acetonitrile–water, and a flow rate of 15 mL/min. The purity of the compounds obtained was determined by RP-HPLC analyses on a system of two Jasco PU 2080 pumps, a Jasco AS-2055 Plus intelligent sampler connected to a JASCO LC-Net II/ADC equipped with a Jasco MD-2010 Plus PDA detector (Jasco International Co. Ltd., Hachioji, Tokyo, Japan) utilizing a Kinetex C-18 (5 μm, 250 × 4.6 mm) column (Phenomenex Inc., Torrance, CA, USA) and applying a gradient of 30%–100% aqueous AcN in 30 min followed by 100% ACN for 10 min with a flow rate of 1 mL/min. Analysis of samples from the PAMPA and kinetic solubility assays was performed the same way, by using 3-point calibrations and integrating each compound at its UV absorption maximum.
In a 96-well polypropylene plate (Greiner Bio-One, Kremsmünster, Austria), 15 μL stock solutions were added to 285 μL PBS (pH 7.4) to make starting donor solution with 500 μM as target concentration. For each sample, 3 replicates were measured. The samples were covered and shaken at 37 °C, 300 rpm for 2 h (Heidolph Titramax 1000, Heidolph Instruments GmbH & Co. KG, Schwabach, Germany). After that, each sample was transferred into a filter plate (MSSBLPC, Multiscreen Filter plate, Merck kGaA) and filtered (Vaccum Manifold, Merck kGaA, Darmstadt, Germany). The filtrates were transferred into HPLC vials, and acetonitrile (AcN) was added to aliquot to avoid precipitation. The final solvent ratio was AcN:PBS (70:30). Filtrate concentration was determined by HPLC-UV (see Section 2.1) using 3-points calibration.

SMILES strings stand for the structures. Read-outs that look alike come from different tables or passages of the source. Where only a bound is given, the exact number is not on record here.

T2 sequence (P80457 2-1332 limits assumed): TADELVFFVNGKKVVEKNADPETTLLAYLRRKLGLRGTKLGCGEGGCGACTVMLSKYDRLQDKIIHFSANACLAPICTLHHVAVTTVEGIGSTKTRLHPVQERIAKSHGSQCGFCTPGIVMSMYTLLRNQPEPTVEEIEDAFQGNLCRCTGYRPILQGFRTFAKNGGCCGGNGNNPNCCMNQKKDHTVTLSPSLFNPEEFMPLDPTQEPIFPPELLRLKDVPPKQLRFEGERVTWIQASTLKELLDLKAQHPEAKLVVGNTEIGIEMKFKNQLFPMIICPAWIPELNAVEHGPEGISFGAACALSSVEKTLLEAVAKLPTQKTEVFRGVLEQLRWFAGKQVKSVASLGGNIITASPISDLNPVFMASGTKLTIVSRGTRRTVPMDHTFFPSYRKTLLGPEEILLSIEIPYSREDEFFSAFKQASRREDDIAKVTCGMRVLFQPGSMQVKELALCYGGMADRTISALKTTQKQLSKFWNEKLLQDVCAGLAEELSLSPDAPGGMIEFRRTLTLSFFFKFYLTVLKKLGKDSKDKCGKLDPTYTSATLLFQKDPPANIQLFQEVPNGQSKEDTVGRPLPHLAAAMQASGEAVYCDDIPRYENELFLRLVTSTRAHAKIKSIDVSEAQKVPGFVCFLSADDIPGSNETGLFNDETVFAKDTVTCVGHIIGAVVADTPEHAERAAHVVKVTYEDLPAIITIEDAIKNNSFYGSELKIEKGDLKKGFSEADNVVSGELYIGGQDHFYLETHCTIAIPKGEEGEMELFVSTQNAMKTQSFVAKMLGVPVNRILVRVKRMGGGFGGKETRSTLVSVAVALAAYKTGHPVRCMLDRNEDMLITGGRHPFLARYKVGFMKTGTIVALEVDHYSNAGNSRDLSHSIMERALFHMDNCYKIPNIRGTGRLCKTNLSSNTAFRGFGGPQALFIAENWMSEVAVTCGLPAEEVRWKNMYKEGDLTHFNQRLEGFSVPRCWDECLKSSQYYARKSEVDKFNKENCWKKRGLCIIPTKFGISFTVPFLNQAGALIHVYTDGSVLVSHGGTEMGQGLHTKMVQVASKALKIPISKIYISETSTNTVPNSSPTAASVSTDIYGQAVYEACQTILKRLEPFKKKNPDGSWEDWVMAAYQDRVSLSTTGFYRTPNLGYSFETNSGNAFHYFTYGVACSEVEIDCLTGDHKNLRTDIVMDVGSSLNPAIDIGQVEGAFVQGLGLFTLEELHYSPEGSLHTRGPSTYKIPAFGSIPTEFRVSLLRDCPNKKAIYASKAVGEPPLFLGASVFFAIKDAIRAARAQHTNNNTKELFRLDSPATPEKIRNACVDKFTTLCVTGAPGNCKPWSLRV

With `CCCCCC(=O)CC(=O)/C=C/c1ccc(O)c(OC)c1` [Compound 11, 6-dehydrogingerdione], the IC50 in series [1] is 4.1 ± 1 µM; in series [2], 23.1 ± 9.3 µM; in series [3] it was 9.04 ± 0.19 µM. The “LLE(COX-1)” value in series [2] is recorded as 1.14. The “ORAC TE” value in series [4] was 1.98 ± 0.12 Trolox equivalents (TE). Also, the “ONOO^– Scavenging (%)” value in series [5] was below 5.0%. Further, the “XO Inhibition (%)” value in series [6] was below 5.0%.
On to `CCCCC/C(O)=C/C(=O)/C=C/c1ccc(O)c(OC)c1` [Compound 11A], for which the kinetic solubility at 2 h in series [7] came to 54 ± 1.3 µM.
For `CCCCCC(=O)/C=C(O)/C=C/c1ccc(O)c(OC)c1` [Compound 11B], in series [7], the solubility (kinetic) at 2 h worked out at 54 ± 1.3 µM.
Same read-out and setting: next, `CCCCCC(=O)CC(=O)/C=C/c1ccc(O)c(OC)c1` [Compound 11C]: 54 ± 1.3 µM.
Consider `CCCCCC(=O)CC(=O)/C=C/c1ccc(O)cc1` [Compound 12, (E)-1-(4-hydroxyphenyl)dec-1-ene-3,5-dione], for which the IC50 is 71.7 ± 28.3 µM in series [1] (Platelet, 0.05 h); above 200 µM in series [2]; above 200 µM in series [3]. For the same compound, the “DPPH scavenging activity (in words)” value in series [3] is “inactive”. The “ORAC TE” value in series [4] is 2.89 ± 0.49 Trolox equivalents (TE). For the same compound, the “ONOO^– Scavenging (%)” value in series [5] is given as below 5.0%. The inhibition at 100 µM in series [6] was below 5%.
`CCCCC/C(O)=C/C(=O)/C=C/c1ccc(O)cc1` [Compound 12A]: the kinetic solubility at 2 h in series [7] came to 15.6 ± 0.1 µM.
Same read-out and setting: to `CCCCCC(=O)/C=C(O)/C=C/c1ccc(O)cc1` [Compound 12B] belongs 15.6 ± 0.1 µM.
As for `CCCCCC(=O)CC(=O)/C=C/c1ccc(O)cc1` [Compound 12C], the solubility (kinetic) at 2 h in series [7] was found to be 15.6 ± 0.1 µM.
Turning to `CCCCCC(=O)CC(=O)CCc1ccc(O)c(OC)c1` [Compound 13, 6-gingerdione], the 50% inhibitory concentration (IC50) worked out at 3.6 ± 0.9 µM in series [1], 11.8 ± 5.4 µM in series [2] and 10.9 ± 0.69 µM in series [3]. Further, the “LLE(COX-1)” value in series [2] is 1.53. In series [4], the “ORAC TE” value is on record as 2.60 ± 0.06 Trolox equivalents (TE). Further, the “ONOO^– Scavenging (%)” value in series [5] is below 5.0%. For the same compound, in series [6], the “XO Inhibition (%)” value is given as below 5.0%.
As for `CCCCC/C(O)=C/C(=O)CCc1ccc(O)c(OC)c1` [Compound 13A], in series [7], the kinetic solubility at 2 h worked out at 315 ± 23.7 µM.
In the case of `CCCCCC(=O)/C=C(\O)CCc1ccc(O)c(OC)c1` [Compound 13B], the kinetic solubility at 2 h in series [7] was 315 ± 23.7 µM.
The same measure, in the same setting: next, `CCCCCC(=O)CC(=O)CCc1ccc(O)c(OC)c1` [Compound 13C]: 315 ± 23.7 µM.
In the case of `Oc1ncnc2[nH]ncc12` [allopurinol, reference compound], the inhibition at 100 µM in series [6] worked out at 98.8 ± 0.11%.
